Patent publication US20230312577A1, “DUAL KINASE-BROMODOMAIN INHIBITORS” (MONASH UNIVERSITY, priority 2020, published 2023)

These molecules were tested on OPM2 cells (assay: Cell proliferation assay (ViaLight, cellular ATP)). Settings: Homo sapiens, OPM-2, 120 h, 5 days, 5 μM to 1 nM.
Assay type: cell-based
Description: OPM2 cells (1×10^3) were plated in a 96 well plate. Test compounds were added to cells at final concentrations ranging from 5 μM to 1 nM. They were incubated for 5 days before they were analysed using ViaLight luminescence-based proliferation assays which detect cellular ATP, as per the manufacturer's instructions. All samples were prepared in technical triplicates. Data analysis was performed in GraphPad Prism version 7.00 for Mac OS X, (GraphPad Software, San Diego California USA) in order to calculate the GI50.

| SMILES | GI50 [nM] |
| --- | --- |
| CC(=O)N1c2ccc(-c3ccc(CNC(=O)c4cc5c(N6CCOCC6)nc(-c6cnc(N)nc6)cn5c4)cc3)cc2CC[C@@H]1C [Cpd 069, (S)-N-(4-(1-Acetyl-2-methyl-1,2,3,4-tetrahydroquinolin-6-yl)benzyl)-3-(2-aminopyrimidin-5-yl)-1-morpholinopyrrolo[1,2-a]pyrazine-7-carboxamide] | ≤ 100 |
| CC(=O)N1c2ccc(-c3ccc(CNC(=O)c4cn5cc(-c6cccc7[nH]ncc67)nc(N6CCOCC6)c5n4)cc3)cc2CC[C@@H]1C [Cpd 059, (S)-N-(4-(1-Acetyl-2-methyl-1,2,3,4-tetrahydroquinolin-6-yl)benzyl)-6-(1H-indazol-4-yl)-8-morpholinoimidazo[1,2-a]pyrazine-2-carboxamide] | ≤ 100 |
| CC(=O)N1c2ccc(-c3ccc(CCNC(=O)c4sc5c(N6CCOCC6)nc(-c6cnc(N)nc6)nc5c4C)cc3)cc2CC[C@@H]1C [Cpd 046, (S)-N-(4-(1-acetyl-2-methyl-1,2,3,4-tetrahydroquinolin-6-yl)phenethyl)-2-(2-aminopyrimidin-5-yl)-7-methyl-4-morpholinothieno[3,2-d]pyrimidine-6-carboxamide] | 100 to 500 |
| CC(=O)N1c2ccc(-c3ccc(CNCc4sc5c(N6CCOCC6)nc(-c6cnc(N)nc6)nc5c4C)cc3)cc2CC[C@@H]1C [Cpd 055, (S)-1-(6-(4-((((2-(2-aminopyrimidin-5-yl)-7-methyl-4-morpholinothieno[3,2-d]pyrimidin-6-yl)methyl)amino)methyl)phenyl)-2-methyl-3,4-dihydroquinolin-1(2H)-yl)ethan-1-one] | > 500 |
| CC(=O)N1c2ccc(-c3ccc(C(=O)N(C)CCN(C)C(=O)c4cn5cc(-c6cnc(N)nc6)nc(N6CCOCC6)c5n4)cc3)cc2CC[C@@H]1C [Cpd 036, (S)-N-(2-(4-(1-Acetyl-2-methyl-1,2,3,4-tetrahydroquinolin-6-yl)-N-methylbenzamido)ethyl)-6-(2-aminopyrimidin-5-yl)-N-methyl-8-morpholinoimidazo[1,2-a]pyrazine-2-carboxamide] | > 500 |
| CC(=O)N1c2ccc(-c3ccc(C(=O)NCCCNC(=O)c4cc5nc(-c6cnc(N)nc6)nc(N6CCOCC6)c5s4)cc3)cc2CC[C@@H]1C [Cpd 040, (S)-N-(3-(4-(1-Acetyl-2-methyl-1,2,3,4-tetrahydroquinolin-6-yl)benzamido)propyl)-2-(2-aminopyrimidin-5-yl)-4-morpholinothieno[3,2-d]pyrimidine-6-carboxamide] | > 500 |
| CC(=O)N1c2ccc(-c3ccc(CN(C)Cc4cc5nc(-c6cnc(N)nc6)nc(N6CCOCC6)c5s4)cc3)cc2CC[C@@H]1C [Cpd 042, (S)-1-(6-(4-((((2-(2-Aminopyrimidin-5-yl)-4-morpholinothieno[3,2-d]pyrimidin-6-yl)methyl)(methyl)amino)methyl)phenyl)-2-methyl-3,4-dihydroquinolin-1(2H)-yl)ethan-1-one] | > 500 |
| CC(=O)N1c2ccc(-c3ccc(CNC(=O)c4cn5cc(-c6cnc(N)nc6)nc(N6CCCCC6)c5n4)cc3)cc2CC[C@@H]1C [Cpd 064, (S)-N-(4-(1-Acetyl-2-methyl-1,2,3,4-tetrahydroquinolin-6-yl)benzyl)-6-(2-aminopyrimidin-5-yl)-8-(piperidin-1-yl)imidazo[1,2-a]pyrazine-2-carboxamide] | 100 to 500 |
| CC(=O)N1c2ccc(-c3ccc(CNC(=O)c4cn5cc(-c6cnc(N)nc6)cc(N6CCOCC6)c5n4)cc3)cc2CC[C@@H]1C [Cpd 074, (S)-N-(4-(1-Acetyl-2-methyl-1,2,3,4-tetrahydroquinolin-6-yl)benzyl)-6-(2-aminopyrimidin-5-yl)-8-morpholinoimidazo[1,2-a]pyridine-2-carboxamide] | ≤ 100 |
| CC(=O)N1c2ccc(-c3ccc(CNC(=O)c4cn5cc(-c6cnc(N)cc6C(F)(F)F)nc(N6CCOCC6)c5n4)cc3)cc2CC[C@@H]1C [Cpd 057, (S)-N-(4-(1-Acetyl-2-methyl-1,2,3,4-tetrahydroquinolin-6-yl)benzyl)-6-(6-amino-4-(tri-fluoromethyl)pyridin-3-yl)-8-morpholinoimidazo[1,2-a]pyrazine-2-carboxamide] | > 500 |
| CC(=O)N1c2ccc(-c3ccc(CCNC(=O)c4cn5cc(-c6cnc(N)nc6)nc(N6CCOCC6)c5n4)cc3)cc2CC[C@@H]1C [Cpd 044, (S)-N-(4-(1-acetyl-2-methyl-1,2,3,4-tetrahydroquinolin-6-yl)phenethyl)-6-(2-aminopyrimidin-5-yl)-8-morpholinoimidazo[1,2-a]pyrazine-2-carboxamide] | 100 to 500 |
| CC(=O)N1c2ccc(-c3cccc(CNC(=O)Cc4cn5cc(-c6cnc(N)nc6)nc(N6CCOCC6)c5n4)c3)cc2CC[C@@H]1C [Cpd 025, (S)-N-(3-(1-acetyl-2-methyl-1,2,3,4-tetrahydroquinolin-6-yl)benzyl)-2-(6-(2-aminopyrimidin-5-yl)-8-morpholinoimidazo[1,2-a]pyrazin-2-yl)acetamide] | 100 to 500 |
| CC(=O)N1c2ccc(-c3ccc(CN4CCN(Cc5cn6cc(-c7cnc(N)nc7)nc(N7CCOCC7)c6n5)CC4)cc3)cc2CC[C@@H]1C [Cpd 015, (S)-1-(6-(4-((4-((6-(2-Aminopyrimidin-5-yl)-8-morpholinoimidazo[1,2-a]pyrazin-2-yl)methyl)piperazin-1-yl)methyl)phenyl)-2-methyl-3,4-dihydroquinolin-1(2H)-yl)ethan-1-one] | 100 to 500 |
| CC(=O)N1c2ccc(-c3cnn(C4CCN(C(=O)c5sc6c(N7CCOCC7)nc(-c7cnc(N)nc7)nc6c5C)CC4)c3)cc2CC[C@@H]1C [Cpd 053, (S)-1-(6-(1-(1-(2-(2-aminopyrimidin-5-yl)-7-methyl-4-morpholinothieno[3,2-d]pyrimidine-6-carbonyl)piperidin-4-yl)-1H-pyrazol-4-yl)-2-methyl-3,4-dihydroquinolin-1(2H)-yl)ethan-1-one] | ≤ 100 |
| CC(=O)N1c2ccc(-c3ccc(C(=O)NCc4cn5cc(-c6cnc(N)nc6)nc(N6CCOCC6)c5n4)cc3)cc2CC[C@@H]1C [Cpd 016, (S)-4-(1-Acetyl-2-methyl-1,2,3,4-tetrahydroquinolin-6-yl)-N-((6-(2-aminopyrimidin-5-yl)-8-morpholinoimidazo[1,2-a]pyrazin-2-yl)methyl)benzamide] | 100 to 500 |
| CC(=O)N1c2ccc(-c3ccc(NC(=O)CNC(=O)c4sc5c(N6CCOCC6)nc(-c6cnc(N)nc6)nc5c4C)cc3)cc2CC[C@@H]1C [Cpd 047, (S)-N-(2-((4-(1-acetyl-2-methyl-1,2,3,4-tetrahydroquinolin-6-yl)phenyl)amino)-2-oxoethyl)-2-(2-aminopyrimidin-5-yl)-7-methyl-4-morpholinothieno[3,2-d]pyrimidine-6-carboxamide] | > 500 |
| CC(=O)N1c2ccc(-c3cccc(CC(=O)NCc4cn5cc(-c6cnc(N)nc6)nc(N6CCOCC6)c5n4)c3)cc2CC[C@@H]1C [Cpd 019, (S)-2-(3-(1-Acetyl-2-methyl-1,2,3,4-tetrahydroquinolin-6-yl)phenyl)-N-((6-(2-aminopy-rimidin-5-yl)-8-morpholinoimidazo[1,2-a]pyrazin-2-yl)methyl)acetamide] | 100 to 500 |
| CC(=O)N1c2ccc(-c3cccc(CCNC(=O)c4sc5c(N6CCOCC6)nc(-c6cnc(N)nc6)nc5c4C)c3)cc2CC[C@@H]1C [Cpd 051, (S)-N-(3-(1-acetyl-2-methyl-1,2,3,4-tetrahydroquinolin-6-yl)phenethyl)-2-(2-aminopyrimidin-5-yl)-7-methyl-4-morpholinothieno[3,2-d]pyrimidine-6-carboxamide] | 100 to 500 |
| CC(=O)N1c2ccc(-c3ccc(CNC(=O)c4nc5c(N6CCOCC6)nc(-c6cnc(N)nc6)nc5n4C)cc3)cc2CC[C@@H]1C [Cpd 071, (S)-N-(4-(1-Acetyl-2-methyl-1,2,3,4-tetrahydroquinolin-6-yl)benzyl)-2-(2-aminopyrimidin-5-yl)-9-methyl-6-morpholino-9H-purine-8-carboxamide] | ≤ 100 |
| CC(=O)N1c2ccc(-c3ccc(C(=O)NCCCNC(=O)c4sc5c(N6CCOCC6)nc(-c6cnc(N)nc6)nc5c4C)cc3)cc2CC[C@@H]1C [Cpd 041, (S)-N-(3-(4-(1-Acetyl-2-methyl-1,2,3,4-tetrahydroquinolin-6-yl)benzamido)propyl)-2-(2-aminopyrimidin-5-yl)-7-methyl-4-morpholinothieno[3,2-d]pyrimidine-6-carboxamide] | > 500 |
| CC(=O)N1c2ccc(-c3ccc(CCNC(=O)c4cc5nc(-c6cnc(N)nc6)nc(N6CCOCC6)c5s4)cc3)cc2CC[C@@H]1C [Cpd 045, (S)-N-(4-(1-acetyl-2-methyl-1,2,3,4-tetrahydroquinolin-6-yl)phenethyl)-2-(2-aminopyrimidin-5-yl)-4-morpholinothieno[3,2-d]pyrimidine-6-carboxamide] | ≤ 100 |
| CC(=O)N1c2ccc(-c3ccc(CNC(=O)c4nc5c(N6CCOCC6)nc(-c6cnc(N)nc6)cn5n4)cc3)cc2CC[C@@H]1C [Cpd 072, (S)-N-(4-(1-Acetyl-2-methyl-1,2,3,4-tetrahydroquinolin-6-yl)benzyl)-6-(2-aminopyrimidin-5-yl)-8-morpholino-[1,2,4]triazolo[1,5-a]pyrazine-2-carboxamide] | ≤ 100 |
| CC(=O)N1c2ccc(-c3ccc(C(C)(C)NC(=O)c4cn5cc(-c6cnc(N)nc6)nc(N6CCOCC6)c5n4)cc3)cc2CC[C@@H]1C [Cpd 061, (S)-N-(2-(4-(1-Acetyl-2-methyl-1,2,3,4-tetrahydroquinolin-6-yl)phenyl)propan-2-yl)-6-(2-aminopyrimidin-5-yl)-8-morpholinoimidazo[1,2-a]pyrazine-2-carboxamide] | 100 to 500 |
| CC(=O)N1c2ccc(-c3ccc(CNC(=O)c4cc5nc(-c6cnc(N)nc6)cc(N6CCOCC6)n5n4)cc3)cc2CC[C@@H]1C [Cpd 075, (S)-N-(4-(1-Acetyl-2-methyl-1,2,3,4-tetrahydroquinolin-6-yl)benzyl)-5-(2-aminopyrimidin-5-yl)-7-morpholinopyrazolo[1,5-a]pyrimidine-2-carboxamide] | ≤ 100 |
